According to paper PMC12186257, “Serendipitous and Systematic Chemoproteomic Discovery of MBLAC2, HINT1, and NME1‑4 Inhibitors from Histone Deacetylase-Targeting Pharmacophores” (ACS Chemical Biology, 2025):

What was measured:
[1] = molecular target: recombinant HINT1 (hHint1) (Homo sapiens, UniProt P49773); test: HINT1 enzyme activity assay (TrpA hydrolysis, fluorescence); type: biochemical; conditions: hHint1 0.002 µM, TrpA 0.5 µM, 25 °C
Text: While the biologically relevant substrates of HINT1 have not been clearly elucidated, the protein has been implicated in opioid receptor signaling, − regulation of the melanoma-associated transcription factor MITF, , and DNA damage repair. These functions position HINT1 as a potential pharmacological target for treating conditions such as opioid resistance or melanoma. The only reported HINT1-targeting pharmacophores are nucleoside-based nonhydrolyzable substrate analogs, such as the carbamate TrpGC (Figure a). , We evaluated the inhibitory potential of KV-24 and KV-30 in enzyme activity assays using recombinant HINT1. […] This discrepancy could be attributed to reduced affinity for the recombinant enzyme due to the absence of post-translational modifications (PTMs), cofactors, or interaction partners that enhance drug binding. Alternatively, it might result from substrate dilution in the lysate, whereas high substrate concentrations in the enzyme activity assay require the inhibitor to compete more effectively.
Mouse brain proteomics – LC-MS/MS. Proteome analysis of brain mouse tissue samples was performed on a micro-flow LC timsTOF HT setup described in detail in REF14. Liquid chromatography in micro-flow mode was performed on a Vanquish Neo UHPLC System (Thermo Fisher Scientific) at a flow rate of 50 µL/min. […] 10 µg of peptide mix was injected and analyzed using a 58 min gradient starting at 1% B up to 45% B (1 h method). […]
Mouse proteomics data analysis. The data files were analyzed with DIA-NN 1.8.1. […] The resulting protein group tables were further analyzed by Perseus 1.6.2.2. […]
CME of transferrin and confocal microscopy analyses.For transferrin uptake experiments HeLa cells were seeded on Matrigel-coated coverslips, and incubated with 0.1 % DMSO, or with 100 µM dynasore, 20 µM KV50, 2 µM KV65, or 2 µM KV79 in media containing 10% FCS at 37°C for 20 h. […] All inhibitor treatments were performed in duplicate, to enable quantification of surface levels of transferrin receptors, and to assess the capability of transferrin receptor endocytosis. […]

recombinant NME1–4 = test: nucleoside diphosphate kinase activity assay (ATP production from ADP and GTP, Kinase-GLO); type: biochemical; conditions: in vitro
Protocol: To evaluate whether KV-50 binding affects NME activity, we performed enzyme activity assays using recombinant NME1–4. The assay measured NME-catalyzed production of ATP from ADP (150 μM) and GTP (150 μM).
Nucleotide diphosphate kinase activity assays. The phosphotransfer activity of the NDPKs (NME1-4) was measured in a reaction mixture containing buffer A (20 mM Tris-HCl pH 8.0, 150 mM NaCl, and 1 mM MgCl2). All the samples were pipetted in replicates on a 384 well plate. One volume of the respective NDPK protein solution (NME1-4) was added from stock proteins (diluted in buffer a to a concentration of 300 pM) to the wells in four replicates. To these wells, one volume of the inhibitors (Six dilutions were prepared, starting with a 30 µM stock solution and then performing three-fold serial dilutions) was added and incubated at room temperature for 30 minutes. Then, one volume of the substrate mixture (300 μM GTP and 30 μM ADP) was added to the protein-inhibitor mixture-containing wells and incubated at room temperature for 30 minutes. Finally, three volumes of the Kinase-GLO reagent (Promega V6711) containing an ATP-dependent firefly luciferase were added to all the wells and five minutes later, the luminescence was measured using a plate reader. Eight different concentrations of ATP (0 - 10 μM) were used as standards for a calibration curve to calculate the amount of ATP produced by the different NDPKs.

Chain of recombinant HINT1 (hHint1) (P49773 whole entry): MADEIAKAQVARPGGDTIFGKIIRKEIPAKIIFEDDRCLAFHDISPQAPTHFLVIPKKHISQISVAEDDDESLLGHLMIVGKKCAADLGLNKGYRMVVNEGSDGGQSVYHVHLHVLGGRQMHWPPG

Row | Structure (SMILES) | IC50 [1] [µM] | effect on NME enzyme activity (recombinant NME1–4)
1 | O=C(NO)c1ccc(-c2nc3ccccc3n3cccc23)cc1 [KV-24] | 12.3 | only modestly reduced NME enzyme activity
2 | O=C(NO)c1ccc(-c2nc3ccccc3c3ccccc23)cc1 [KV-30] | 12.6 | only modestly reduced NME enzyme activity
